In US9498483B2, “2,3,5-trisubstituted thiophene compounds and uses thereof” (priority 2010, dated 2016) one finds IC50 data, which are given here for 24 compounds.

The first assay concerns the target T1, HCV polymerase (Hepatitis C virus genotype 1b, UniProt Q9WMX2).
T1 construct: (His)6 (C); made in house; host or cells: XL-1 cells (E. coli, by own knowledge)
Kind of assay: Polymerase assay of Biological Example 1 (IC50 values of Table 3). It counts as biochemical. To be noted: IC50 values of Table 3, polymerase assay of Biological Example 1; read-out: NS5B-enzyme3. The text has this:
A number of assays have been published to assess these activities. A general method that assesses the gross increase of HCV virus in culture was disclosed in U.S. Pat. No. 5,738,985 to Miles et al. In vitro assays have been reported in Ferrari et al. Jnl. of Vir., 73:1649-1654, 1999; Ishii et al., Hepatology, 29:1227-1235, 1999; Lohmann et al., Jnl of Bio. Chem., 274:10807-10815, 1999; and Yamashita et al., Jnl. of Bio. Chem., 273:15479-15486, 1998.
WO 97/12033, filed on Sep. 27, 1996, by Emory University, listing C. Hagedorn and A. Reinoldus as inventors, which claims priority to U.S. Provisional Patent Application Ser. No. 60/004,383, filed on September 1995, described an HCV polymerase assay that can be used to evaluate the activity of the of the compounds described herein. Another HCV polymerase assay has been reported by Bartholomeusz, et al., Hepatitis C Virus (HCV) RNA polymerase assay using cloned HCV non-structural proteins; Antiviral Therapy 1996:1 (Supp 4) 18-24.
“3-[(2S,5R)-5-Cyclohexyl-2-(2,3-dihydroxy-propyl)-2-methyl-3-oxo-morpholin-4-yl]-5-(3,3-dimethyl-but-1-ynyl)-thiophene-2-carboxylic acid [Compound 326]”: the IC50 was 882 nM.

As for `CC(C)(C)C#Cc1cc(N2C(=O)[C@H](CCCO)OC[C@H]2C2CCCCC2)c(C(=O)O)s1` (single isomer, unassigned) [Compound 2], the IC50 came to 35 nM.

`CC(C)(C)C#Cc1cc(N2C(=O)[C@@H](CCCO)OC[C@H]2C2CCCCC2)c(C(=O)O)s1` (single isomer, unassigned) [Compound 3]: the IC50 came out at 4 nM.

With `CCc1ccc(S(=O)(=O)N2CC(=O)N(c3cc(-c4ccccc4)sc3C(=O)O)C(C3CCCCC3)C2)cc1` (single isomer, unassigned) [Compound 55, 3-[2-Cyclohexyl-4-(4-ethyl-benzenesulfonyl)-6-oxo-piperazin-1-yl]-5-phenyl-thiophene-2-carboxylic acid], the IC50 came to 71 nM.

For `CC(C)(C)C#Cc1cc(N2C(=O)C(CCO)CC[C@H]2C2CCCCC2)c(C(=O)O)s1` (single isomer, unassigned) [Compound 343], the IC50 was determined as 1 nM.

Take `CC(C)(C)OC(=O)N1CC(=O)N(c2cc(-c3ccccc3)sc2C(=O)O)[C@H](C2CCCCC2)C1` [Compound 14, (R)-4-(2-Carboxy-5-phenyl-thiophen-3-yl)-3-cyclohexyl-5-oxo-piperazine-1-carboxylic acid tert-butyl ester]: the IC50 came out at 3650 nM.

For the compound `O=C(O)c1sc(-c2ccccc2)cc1N1C(=O)CN(Cc2cccc(-n3cccc3)c2)C[C@H]1C1CCCCC1` [Compound 261, 3-[(R)-2-Cyclohexyl-6-oxo-4-(3-pyrrol-1-yl-benzyl)-piperazin-1-yl]-5-phenyl-thiophene-2-carboxylic acid], the IC50 amounted to 199 nM.

Regarding `Cc1cccc(CN2CC(=O)N(c3cc(-c4ccccc4)sc3C(=O)O)[C@H](C3CCCCC3)C2)c1` [Compound 263, 3-[(R)-2-Cyclohexyl-4-(3-methyl-benzyl)-6-oxo-piperazin-1-yl]-5-phenyl-thiophene-2-carboxylic acid], the IC50 was 108 nM.

On to `Cc1cccc(C)c1CN1CC(=O)N(c2cc(-c3ccccc3)sc2C(=O)O)[C@H](C2CCCCC2)C1` [Compound 264, 3-[(R)-2-Cyclohexyl-4-(2,6-dimethyl-benzyl)-6-oxo-piperazin-1-yl]-5-phenyl-thiophene-2-carboxylic acid], for which the IC50 was found to be 538 nM.

Consider `O=C(O)c1sc(-c2ccccc2)cc1N1C(=O)CN(CC2CCCCC2)C[C@H]1C1CCCCC1` [Compound 265, 3-((R)-2-Cyclohexyl-4-cyclohexylmethyl-6-oxo-piperazin-1-yl)-5-phenyl-thiophene-2-carboxylic acid], for which the IC50 is 601 nM.

For `O=C(O)c1sc(-c2ccccc2)cc1N1C(=O)CN(Cc2cccc(F)c2N2CCOCC2)C[C@H]1C1CCCCC1` [Compound 266, 3-[(R)-2-Cyclohexyl-4-(3-fluoro-2-morpholin-4-yl-benzyl)-6-oxo-piperazin-1-yl]-5-phenyl-thiophene-2-carboxylic acid], the IC50 turned out to be 142 nM.

For `O=C(O)c1sc(-c2ccccc2)cc1N1C(=O)CN(CCc2ccccc2)C[C@H]1C1CCCCC1` [Compound 268, 3-((R)-2-Cyclohexyl-6-oxo-4-phenethyl-piperazin-1-yl)-5-phenyl-thiophene-2-carboxylic acid], the IC50 was 620 nM.

`Cc1ccccc1CN1CC(=O)N(c2cc(-c3ccccc3)sc2C(=O)O)[C@H](C2CCCCC2)C1` [Compound 269, 3-[(R)-2-Cyclohexyl-4-(2-methyl-benzyl)-6-oxo-piperazin-1-yl]-5-phenyl-thiophene-2-carboxylic acid]: the IC50 stood at 330 nM.

`CN(C)c1ccc(CN2CC(=O)N(c3cc(-c4ccccc4)sc3C(=O)O)[C@H](C3CCCCC3)C2)cc1` [Compound 270, 3-[(R)-2-Cyclohexyl-4-(4-dimethylamino-benzyl)-6-oxo-piperazin-1-yl]-5-phenyl-thiophene-2-carboxylic acid]: the IC50 stood at 19 nM.

Regarding `CC(C)(C)C#Cc1cc(N2C(=O)C(CCCS(C)(=O)=O)OC[C@H]2C2CCCCC2)c(C(=O)O)s1` (stereo partly drawn) [Compound 306, 3-[(R)-5-Cyclohexyl-2-(3-methanesulfonyl-propyl)-3-oxo-morpholin-4-yl]-5-(3,3-dimethyl-but-1-ynyl)-thiophene-2-carboxylic acid], the IC50 amounted to 5.3 nM.

For the next assay, the system named is HCV replicon I389luc-ubi-neo/NS3-3′/ET in ET (Huh-lucubineo-ET) cells. Briefly: Replicon assay (Biological Example 2), luciferase readout. It counts as cell-based. To be noted: Hepatitis C virus; ET cells, luciferase activity 48 hours after compound. The procedure:
A cell line, ET (Huh-lucubineo-ET) was used for screening of compounds for inhibiting HCV RNA dependent RNA polymerase. The ET cell line was stably transfected with RNA transcripts harboring a I389luc-ubi-neo/NS3-3′/ET; replicon with firefly luciferase-ubiquitin-neomycin phosphotransferase fusion protein and EMCV-IRES driven NS3-5B polyprotein containing the cell culture adaptive mutations (E1202G; T12801; K1846T) (Krieger at al, 2001 and unpublished). The ET cells were grown in DMEM (Dulbeco's Modified Eagle's Medium), supplemented with 10% fetal calf serum, 2 mM Glutamine, Penicillin (100 IU/mL)/Streptomycin (100 μg/mL), 1× nonessential amino acids, and 250 μg/mL G418 (“Geneticin”). Reagents were all available through Life Technologies (Bethesda, Md.). The cells were plated at 0.5-1.0×10^4 cells/well in the 96 well plates and incubated for 24 hrs before adding test compound. The compounds were added to the cells to achieve a final concentration of 0.1 nM to 50 μM and a final DMSO (dimethylsulfoxide) concentration of 0.5%. Luciferase activity was measured 48 hours later by adding a lysis buffer and the substrate (Catalog number Glo-lysis buffer E2661 and Bright-Glo luciferase system E2620 Promega, Madison, Wis.). Cells should not be too confluent during the assay. Percent inhibition of replication data was plotted relative to no compound control. To determine the EC50 (effective concentration at which 50% of the maximum inhibition was observed), a 10 point, 3-fold serial dilution for each compound was used, which spans a concentration range of […]. EC50 values were calculated by fitting % inhibition at each concentration to the following equation: % inhibition=100%/[(EC50/[I])^b+1] where b was Hill's coefficient.
In other aspects the EC50 was equal to or less than 10 μM. In still other aspects the EC50 was equal to or less than 1 μM.
(A replicon is a self-replicating genome or part of one, used to study replication in cells.)
`CC(C)(C)C#Cc1cc(N2C(=O)[C@H](CCCO)OC[C@H]2C2CCCCC2)c(C(=O)O)s1` (single isomer, unassigned) [Compound 2] returned an IC50 of no more than 100 nM.

On to `CC(C)(C)C#Cc1cc(N2C(=O)[C@@H](CCCO)OC[C@H]2C2CCCCC2)c(C(=O)O)s1` (single isomer, unassigned) [Compound 3], for which the IC50 is no more than 100 nM.

Take `CC(C)(C)C#Cc1cc(N2C(=O)C(CCO)CC[C@H]2C2CCCCC2)c(C(=O)O)s1` (single isomer, unassigned) [Compound 343]: the IC50 was no more than 100 nM.

As to `CC1CCN(c2ccc(S(=O)(=O)N3CC(=O)N(c4cc(-c5ccccc5)sc4C(=O)O)C(C4CCCCC4)C3)cn2)CC1` (stereo not shown) [Compound 96, 3-[2-Cyclohexyl-4-(4-methyl-3,4,5,6-tetrahydro-2H-[1,2′]bipyridinyl-5′-sulfonyl)-6-oxo-piperazin-1-yl]-5-phenyl-thiophene-2-carboxylic acid], the IC50 is no more than 100 nM.

As for `C[C@@H]1CCCN1c1ccc(S(=O)(=O)N2CC(=O)N(c3cc(-c4ccc(Cl)cc4)sc3C(=O)O)[C@H](C3CCCCC3)C2)cn1` [Compound 201, 5-(4-Chloro-phenyl)-3-{(R)-2-cyc!ohexyl-4-[6-((R)-2-methyl-pyrrolidin-1-yl)-pyridine-3-sulfonyl]-6-oxo-piperazin-1-yl}-thiophene-2-carboxylic acid], the IC50 is no more than 100 nM.

For `CC1(C)CCN(c2ccc(S(=O)(=O)N3CC(=O)N(c4cc(-c5ccccc5)sc4C(=O)O)[C@H](C4CCCCC4)C3)cn2)C1` [Compound 219, 3-{(R)-2-Cyclohexyl-4-[6-(3,3-dimethyl-pyrrolidin-1-yl)-pyridine-3-sulfonyl]-6-oxo-piperazin-1-yl}-5-phenyl-thiophene-2-carboxylic acid], the IC50 was no more than 100 nM.

Compound `CN1CCN(c2ccc(-c3ccc(S(=O)(=O)N4CC(=O)N(c5cc(-c6ccccc6)sc5C(=O)O)[C@H](C5CCCCC5)C4)cn3)cn2)CC1` [Compound 224, 3-{(R)-2-Cyclohexyl-4-[6′-(4-methyl-piperazin-1-yl)-[2,3′]bipyridinyl-5-sulfonyl]-6-oxo-piperazin-1-yl}-5-phenyl-thiophene-2-carboxylic acid] returned an IC50 of no more than 100 nM.

As for `O=C(O)c1sc(-c2ccc(F)cc2)cc1N1C(=O)CN(S(=O)(=O)c2ccc(N3CC4CC3CO4)nc2)C[C@H]1C1CCCCC1` (stereo partly drawn) [Compound 228, 3-{(R)-2-Cyclohexyl-4-[6-(2-oxa-5-aza-bicyclo[2.2.1]hept-5-yl)-pyridine-3-sulfonyl]-6-oxo-piperazin-1-yl}-5-(4-fluoro-phenyl)-thiophene-2-carboxylic acid], the IC50 was no more than 100 nM.

`O=C(O)c1sc(-c2ccc(F)cc2)cc1N1C(=O)CN(S(=O)(=O)c2ccc(N3CCCCC3)nc2)C[C@H]1C1CCCCC1` [Compound 235, 3-[(R)-2-Cyclohexyl-6-oxo-4-(3,4,5,6-tetrahydro-2H-[1,2′]bipyridinyl-5′-sulfonyl)-piperazin-1-yl]-5-(4-fluoro-phenyl)-thiophene-2-carboxylic acid] came in with an IC50 of no more than 100 nM.

For the compound `Cc1oncc1S(=O)(=O)N1CC(=O)N(c2cc(C#CC(C)(C)C)sc2C(=O)O)[C@H](C2CCCCC2)C1` [Compound 240, 3-[(R)-2-Cyclohexyl-4-(5-methyl-isoxazole-4-sulfonyl)-6-oxo-piperazin-1-yl]-5-(3,3-dimethyl-but-1-ynyl)-thiophene-2-carboxylic acid], the IC50 was no more than 100 nM.

Staying with this assay, now noted: Hepatitis C virus; between 100 nM and 5.0 uM.
In turn, `CCc1ccc(S(=O)(=O)N2CC(=O)N(c3cc(-c4ccccc4)sc3C(=O)O)C(C3CCCCC3)C2)cc1` (single isomer, unassigned) [Compound 55, 3-[2-Cyclohexyl-4-(4-ethyl-benzenesulfonyl)-6-oxo-piperazin-1-yl]-5-phenyl-thiophene-2-carboxylic acid] showed an IC50 of 100 to 5000 nM.

`O=C(O)c1sc(-c2ccccc2)cc1N1C(=O)CC[C@H]1C1CCCCC1` [Compound 6, 3-((S)-2-Cyclohexyl-5-oxo-pyrrolidin-1-yl)-5-phenyl-thiophene-2-carboxylic acid] came in with an IC50 of 100 to 5000 nM.

The compound `O=C(O)c1sc(-c2ccccc2)cc1N1C(=O)CN(S(=O)(=O)c2ccc(-c3ccncc3)nc2)C[C@H]1C1CCCCC1` [Compound 207] returned an IC50 of 100 to 5000 nM.
